Assay results published in PMC8020424, “Characterization of D-xylose reductase, XyrB, from Aspergillus niger” (Biotechnology Reports, 2021).
Like-named read-outs stand apart in the source and are kept apart here.

System: T1, XyrB
T1 construct: full-length intron-free codon-optimized gene in pET-28a(+), E. coli BL21(DE3)pLysS, HisTrap purified; AKR motif 22-277
Test: NADPH consumption at […] nm, Michaelis-Menten fit
Type: biochemical, Aspergillus niger
Conditions: 0.2 mM NADPH, PBS pH 7.0, 25 °C

Row | Compound | Km (read-out: Km) [mM] | Km (read-out: D-xylose / Km) [mM]
1 | OC[C@H]1OC(O)[C@H](O)[C@@H](O)[C@H]1O (stereo partly drawn) [D-galactose] | 12.5 | –
2 | OC1OC[C@@H](O)[C@H](O)[C@H]1O (stereo partly drawn) [D-xylose] | – | 3.3
3 | OC1OC[C@H](O)[C@H](O)[C@H]1O (stereo partly drawn) [L-arabinose] | 9.9 | –
